ChEMBL document CHEMBL6121052, “Design of ROS-Triggered Sesquiterpene Lactone SC Prodrugs as TrxR1 Covalent Inhibitors for the Treatment of Non-Small Cell Lung Cancer” (J Med Chem, 2025)
The source made the active and inactive calls. The rule behind the calls is not given here.

Legend:
[1] = target: T1, Thioredoxin reductase 1, cytoplasmic (Homo sapiens) (UniProt Q16881); test: Inhibition of TrxR1 (unknown origin) using DTNB as substrate preincubated for 1.5 hrs by microplate reader analysis
T1 sequence (whole entry): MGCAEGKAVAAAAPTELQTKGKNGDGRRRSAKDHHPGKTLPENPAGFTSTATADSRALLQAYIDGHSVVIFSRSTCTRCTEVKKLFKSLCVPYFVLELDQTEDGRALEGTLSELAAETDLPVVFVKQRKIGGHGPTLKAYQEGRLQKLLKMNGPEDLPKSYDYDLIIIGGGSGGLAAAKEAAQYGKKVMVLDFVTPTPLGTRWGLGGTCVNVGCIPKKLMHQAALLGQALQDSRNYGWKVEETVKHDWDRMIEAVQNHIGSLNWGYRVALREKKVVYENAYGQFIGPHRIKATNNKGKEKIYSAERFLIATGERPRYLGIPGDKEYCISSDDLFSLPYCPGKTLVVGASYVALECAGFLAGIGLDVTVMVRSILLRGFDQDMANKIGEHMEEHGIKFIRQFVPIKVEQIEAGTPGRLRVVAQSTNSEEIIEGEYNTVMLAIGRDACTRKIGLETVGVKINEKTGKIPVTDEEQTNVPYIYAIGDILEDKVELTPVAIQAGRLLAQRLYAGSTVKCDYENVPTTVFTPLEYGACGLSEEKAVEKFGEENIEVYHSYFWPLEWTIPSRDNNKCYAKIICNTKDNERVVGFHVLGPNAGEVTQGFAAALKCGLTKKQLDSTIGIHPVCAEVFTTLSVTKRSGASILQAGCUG

[2] = target: T1, Thioredoxin reductase 1, cytoplasmic (Homo sapiens); test: Binding affinity to TrxR1 in human A549 cells assessed as thermal stabilization by measuring reduction in thermal denaturation at 200 uM incubated for 90 mins by CETSA analysis; assay type: cell-based
[3] = target: T2, Thioredoxin reductase 1, cytoplasmic (Homo sapiens, UniProt Q16881); test: Binding affinity to TrxR1 (unknown origin) assessed as dissociation constant by SPR analysis
T2 sequence (Q16881 whole entry): T1 sequence (whole entry)

[4] = target: T1, Thioredoxin reductase 1, cytoplasmic (Homo sapiens); test: Binding affinity to TrxR1 (unknown origin) at Cys475 residue
[5] = target: T1, Thioredoxin reductase 1, cytoplasmic (Homo sapiens); test: Binding affinity to TrxR1 (unknown origin) at Sec498 residue by pull-down analysis

inhibition [1]: Active
Activity [2]: Active
Kd [3]: 7.89 µM
Activity [4]: Active
Activity [5]: Active
Structure (SMILES): C=C1C(=O)O[C@H]2CC3=C[C@H](C/C(C)=C/[C@@H](OC(=O)NCCC)[C@H]12)OC3=O
